Structures can show the parent of a compound that is named as a salt. Where two headings read alike, the source gives them in different places.
How the values were obtained:
[1] = test system: constitutive ERK phosphorylation in HCT-116 cells; experiment: HCT-116 AlphaLISA SureFire pERK1/2 cellular assay; type: cell-based, human; conditions: Homo sapiens, HCT-116, HCT116 cells, 2 hr, read-out: pERK HCT116 (2 hr) Abs pIC50 (converted)
Procedure, shortened: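 Cells seeded overnight (30,000/well for 2 h, 15,000/well for 24 h), then dosed in 1% FBS medium with a 10-point series from 1 μM top, 1/3 log steps, for 2 or 24 h at 37 °C. Lysates read by AlphaLISA for Thr202/Tyr204 pERK1/2; absolute IC50 versus DMSO control.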

[2] = test system: constitutive ERK phosphorylation in WiDr cells; experiment: WiDr AlphaLISA SureFire pERK1/2 cellular assay; type: cell-based, human; conditions: Homo sapiens, WiDr cells, 2 hr, read-out: pERK WiDr (2 hr) Abs pIC50 (converted)
Experimental: The human HCT-116 colorectal carcinoma cell line (ATCC CCL-247) endogenously expresses the KRAS^G13D mutation, which leads to constitutive activation of the MAP kinase pathway and phosphorylation of ERK. […] Assay read outs took place 2 or 24 hours after dosing with compounds. On the first day, HCT-116 cells were harvested, resuspended in growth medium (McCoys5A with Glutamax (Life Technologies 36600021) and 10% heat-inactivated fetal bovine serum (Sigma F9665)), and counted. Cells were plated in 100 μl per well in each well of a 96-well culture dish (Sigma CLS3598) to a final density of 30,000 (2 hr read) or 15,000 (24 hr read) cells per well and incubated over night at 37° C. and 5% CO2. On day 2, the growth medium was exchanged for dosing medium (McCoys5A with Glutamax (Life Technologies 36600021) and 1% heat-inactivated fetal bovine serum (Sigma F9665)) and the cells were dosed with compounds to produce a 10-point dose response, where the top concentration was 1 μM and subsequent concentrations were at 1/3 log dilution intervals. A matched DMSO control was included. The cells were subsequently incubated for either 2 or 24 hours at 37° C. and 5% CO2. After incubation, media was removed and the cells were incubated with lysis buffer containing phosphatase inhibitors for 15 minutes at room temperature. Cell lysates were transferred to a 12 area 96 well white Optiplate™ (Perkin Elmer 6005569) and incubated with anti-mouse IgG acceptor beads, a biotinylated anti-ERK1/2 rabbit antibody recognizing both phosphorylated and non-phosphorylated ERK1/2, a mouse antibody targeted to the Thr202/Tyr204 epitope and recognizing phosphorylated ERK proteins only, and streptavidin-coated donor beads. The biotinylated antibody binds to the streptavidin-coated donor beads and the phopsho-ERK1/2 antibody binds to the acceptor beads. Plates were read on an EnVision reader (Perkin Elmer) and excitation of the beads at 680 nm with a laser induced the release of singlet oxygen molecules from the donor beads that trigger energy transfer to the acceptor beads in close proximity, producing a signal that can be measured at […]. Both antibodies bound to phosphorylated ERK proteins, bringing the donor and acceptor beads into close proximity. All data were analyzed using the Dotmatics or GraphPad Prism software packages. Inhibition of ERK phosphorylation was assessed by determination of the absolute IC50 value, which is defined as the concentration of compound required to decrease the level of phosphorylated ERK proteins by 50% when compared to DMSO control.
WiDr AlphaLISA SureFire pERK1/2 Cellular Assay
The human WiDr colorectal adenocarcinoma cell line (ATCC CCL-218) endogenously expresses the BRAF^V600E mutation, which leads to constitutive activation of the MAP kinase pathway and phosphorylation of ERK. […] The main procedure is essentially the same as for HCT-116 cells (above), with the following adjustments to the growth medium (Eagle's Minimum Essential Medium (Sigma M2279) with 1× Glutamax (Life Technologies 35050038), 1× Sodium-Pyruvate (Sigma S8636), and 10% heat-inactivated fetal bovine serum (Sigma F9665)), the dosing medium (Eagle's Minimum Essential Medium (Sigma M2279) with 1× Glutamax (Life Technologies 35050038), 1× Sodium-Pyruvate (Sigma S8636), and 1% heat-inactivated fetal bovine serum (Sigma F9665)), and the seeding densities (2 hr: 50,000 cells per well; 24 hr: 35,000 cells per well). Moreover, the compounds were dosed in 1/2 log dilution intervals with the top concentration of 10 μM.

[3] = Microsomal stability assay, human liver microsomes (HLM); type: in vitro ADME; conditions: 0.5 mg/mL protein, 1 μM substrate
Procedure, shortened: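 Substrate depletion: 1 μM compound incubated at 37° C. with cryopreserved mouse or human liver microsomes at 0.5 mg·mL^−1 protein. Timed aliquots quenched in ice-cold organic solvent and measured by LC-MS/MS; t1/2 and CLint derived from the slope of ln % remaining versus time.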

Compound | IC50 ([1]; absolute IC50) [µM] | IC50 ([2]; absolute IC50) [µM] | microsomal CLint at 1 μM [3] [µL/min/mg] | IC50 ([1]; Abs) [µM] | IC50 ([2]; Abs) [µM] | microsomal CLint at 1 μM ([3]; 37° C.) [µL/min/mg]
O=C1CCc2c(Oc3ccc4c(c3)CN(c3nc(-c5ccccc5)n[nH]3)CC4)ccnc2N1 [Compound 44, 5-[[2-(3-phenyl-1H-1,2,4-triazol-5-yl)-3,4-dihydro-1H-isoquinolin-7-yl]oxy]-3,4-dihydro-1H-1,8-naphthyridin-2-one hydrochloride] | 0.537 | 0.355 | 14.2 |  |  | 
Cc1cc(-c2c[nH]c(C3COc4ccc(Oc5ccnc6c5CCC(=O)N6)cc4C3)n2)n(CC(F)(F)F)n1 (stereo not drawn) [Compound 126, 5-[3-[4-[5-methyl-2-(2,2,2-trifluoroethyl)pyrazol-3-yl]-1H-imidazol-2-yl]chroman-6-yl]oxy-3,4-dihydro-1H-1,8-naphthyridin-2-one] |  |  |  | 0.501 | 1.02 | 121
O=C(CN1CC(O)C1)Nc1cc(Oc2ccc3c(c2)CC(c2nc(-c4ccccc4)c[nH]2)CO3)ccn1 (stereo not drawn) [Compound 153] |  |  |  | 0.2 | 0.288 | 19.2
CC(C)(C)CCc1c[nH]c(C2COc3ccc(Oc4ccnc5c4CCC(=O)N5)cc3C2)n1 (stereo not drawn) [Compound 115, 5-[3-[4-(3,3-dimethylbutyl)-1H-imidazol-2-yl]chroman-6-yl]oxy-3,4-dihydro-1H-1,8-naphthyridin-2-one] |  |  |  | 0.0457 | 0.00813 | 277
N#Cc1ccc2[nH]c(C3COc4ccc(Oc5ccnc6c5CCC(=O)N6)cc4C3)nc2c1 (stereo not drawn) [Compound 24] | 0.407 | 0.501 | 12.7 |  |  | 
Cc1cc(-c2c[nH]c(C3COc4ccc(Oc5ccnc6c5CCC(=O)N6)cc4C3)n2)n(C2CC2)n1 (stereo not drawn) [Compound 114, 5-[3-[4-(2-cyclopropyl-5-methyl-pyrazol-3-yl)-1H-imidazol-2-yl]chroman-6-yl]oxy-3,4-dihydro-1H-1,8-naphthyridin-2-one] |  |  |  | > 1 | 1.35 | 38.5
O=C1CCc2c(Oc3ccc4c(c3)CN(C(=O)Nc3cccc(C(F)(F)F)c3)CC4)ccnc2N1 [Compound 50] | 0.0468 | 0.0977 | 70.4 |  |  | 
O=C1CCc2c(Oc3ccc4c(c3)CC(c3nc5cc(C(F)(F)F)ncc5[nH]3)CO4)ccnc2N1 (racemic) [Compound 32] | 0.229 | 0.204 | 11.3 |  |  | 
c1ccc(-c2c[nH]c(C3COc4ccc(Oc5ccnc(Nc6ccccn6)c5)cc4C3)n2)cc1 (stereo not drawn) [Compound 140, 4-[3-(4-phenyl-1H-imidazol-2-yl)chroman-6-yl]oxy-N-(2-pyridyl)pyridin-2-amine] |  |  |  | > 1 | 1.26 | 48.7
O=C(Nc1cc(Oc2ccc3c(c2)CC(c2nc(-c4ccccc4)c[nH]2)CO3)ccn1)C1CC1 (stereo not drawn) [Compound 45, N-[4-[3-(4-phenyl-1H-imidazol-2-yl)chroman-6-yl]oxy-2-pyridyl]cyclopropanecarboxamide] | 0.0275 | 0.0661 | 58.1 |  |  | 
O=C1CCc2c(Oc3ccc4c(c3)CC(c3nc(-c5ccnc(C(F)F)c5)c[nH]3)CO4)ccnc2N1 (stereo not drawn) [Compound 101, 5-[3-[4-[2-(difluoromethyl)-4-pyridyl]-1H-imidazol-2-yl]chroman-6-yl]oxy-3,4-dihydro-1H-1,8-naphthyridin-2-one] |  |  |  | 0.132 | 0.182 | 29.6
CC1CC1C(=O)Nc1cc(Oc2ccc3c(c2)CC(c2nc(-c4ccccc4)c[nH]2)CO3)ccn1 (stereo not drawn) [Compound 157] |  |  |  | 0.112 | 0.275 | 35.7
COc1cc(-c2c[nH]c(C3COc4ccc(Oc5ccnc6c5CCC(=O)N6)cc4C3)n2)ccn1 (stereo not drawn) [Compound 19, 5-[3-[4-(2-methoxy-4-pyridyl)-1H-imidazol-2-yl]chroman-6-yl]oxy-3,4-dihydro-1H-1,8-naphthyridin-2-one] | 0.316 | 1.1 | 27.8 |  |  | 
CN(C)c1ccc2[nH]c(C3COc4ccc(Oc5ccnc6c5CCC(=O)N6)cc4C3)nc2c1 (stereo not drawn) [Compound 26] | 0.417 | 0.302 | 77.5 |  |  | 
Cc1cc(-c2c[nH]c(C3COc4ccc(Oc5ccnc6c5CCC(=O)N6)cc4C3)n2)n(C(C)C)n1 (stereo not drawn) [Compound 112, 5-[3-[4-(2-isopropyl-5-methyl-pyrazol-3-yl)-1H-imidazol-2-yl]chroman-6-yl]oxy-3,4-dihydro-1H-1,8-naphthyridin-2-one] |  |  |  | > 1 | 1 | 81.5
O=C(Nc1cc(Oc2ccc3c(c2)CC(c2nc(-c4ccccc4)c[nH]2)CO3)ccn1)C1CC1 (racemic) [Compound 136] |  |  |  | 0.0275 | 0.0661 | 58.1
CC(=O)Nc1cc(Oc2ccc3c(c2)CC(c2nc(-c4ccccc4)c[nH]2)CO3)ccn1 (stereo not drawn) [Compound 156, N-[4-[3-(4-phenyl-1H-imidazol-2-yl)chroman-6-yl]oxy-2-pyridyl]acetamide] |  |  |  | 0.0427 | 0.132 | 30.3
O=C1CCc2c(Oc3ccc4c(c3)CC(c3nc5ccncc5[nH]3)CO4)ccnc2N1 (stereo not drawn) [Compound 134, 5-[3-(3H-imidazo[4,5-c]pyridin-2-yl)chroman-6-yl]oxy-3,4-dihydro-1H-1,8-naphthyridin-2-one] |  |  |  | > 1 | 6.17 | 13.6
O=C(Cn1cncn1)Nc1cc(Oc2ccc3c(c2)CC(c2nc(-c4ccccc4)c[nH]2)CO3)ccn1 (stereo not drawn) [Compound 154] |  |  |  | 0.0282 | 0.0331 | 22.8
O=C1CCc2c(Oc3ccc4c(c3)CN(c3nc5cc(C(F)(F)F)ccc5[nH]3)CC4)ccnc2N1 [Compound 160] |  |  |  | 0.135 | 0.219 | 2.7
CN1CCN(CC(=O)Nc2cc(Oc3ccc4c(c3)CC(c3nc(-c5ccccc5)c[nH]3)CO4)ccn2)CC1 (stereo not drawn) [Compound 146, 2-(4-methylpiperazin-1-yl)-N-[4-[3-(4-phenyl-1H-imidazol-2-yl)chroman-6-yl]oxy-2-pyridyl]acetamide] |  |  |  | 0.178 | 0.398 | 33.4
CCc1cc(-c2c[nH]c(C3COc4ccc(Oc5ccnc6c5CCC(=O)N6)cc4C3)n2)n(C)n1 (stereo not drawn) [Compound 111] |  |  |  | 0.219 | 0.324 | 48.1
CN1CCC(C(=O)Nc2cc(Oc3ccc4c(c3)CC(c3nc(-c5ccccc5)c[nH]3)CO4)ccn2)CC1 (stereo not drawn) [Compound 147, 1-methyl-N-[4-[3-(4-phenyl-1H-imidazol-2-yl)chroman-6-yl]oxy-2-pyridyl]piperidine-4-carboxamide] |  |  |  | 0.324 | 0.871 | 10.4
COc1ccsc1-c1c[nH]c(C2COc3ccc(Oc4ccnc5c4CCC(=O)N5)cc3C2)n1 (stereo not drawn) [Compound 123] |  |  |  | 0.0631 | 0.0339 | 97.5
